Earlier results in patent US10376519B2, “Tricyclic lactams for use in HSPC-sparing treatments for Rb-positive abnormal cellular proliferation” (G1 Therapeutics, Inc., priority 2014, dated 2019).

Key:
[1] = in vivo
[2] = Grade 3/4 neutropenia and leukopenia, clinical trial studies

T1/2 [1]: roughly 26.7 hours
patients requiring a dose interruption [2]: 71%
patients requiring a dose reduction [2]: 35%
Structure (SMILES): CC(=O)c1c(C)c2cnc(Nc3ccc(N4CCNCC4)cn3)nc2n(C2CCCC2)c1=O [palbociclib, 6-acetyl-8-cyclopentyl-5-methyl-2-(5-piperazin-1-yl-pyridin-2-ylammino)-8H-pyrido-[2,3-d]-pyrimidin-7-one]
